Experimental data from US9850225B2, “Compounds useful as immunomodulators” (BRISTOL-MYERS SQUIBB COMPANY, priority 2014, dated 2017).

Biological target: PD-1/PD-L1 interaction (PD-1-Ig / PD-L1-His) (Homo sapiens (Human), UniProt Q9NZQ7)
Experiment: PD-1/PD-L1 Homogenous Time-Resolved Fluorescence (HTRF) binding assay
Conditions: PD-1/PD-L1 HTRF binding assay; value given as range class; read-out: Range or IC50
In short: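 HTRF detection used 1 nM europium-cryptate anti-Ig and 20 nM APC anti-His. Compounds first saw 10 nM PD-L1-His for 15 min, and 20 nM PD-1-Ig was then added for another 15 min. Buffer was dPBS plus 0.1% BSA and 0.05% Tween-20. All concentrations are final.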

PD-1/PD-L1 interaction (PD-1-Ig / PD-L1-His), sequence (Q9NZQ7 other isoform, or with tags, fused parts or gaps): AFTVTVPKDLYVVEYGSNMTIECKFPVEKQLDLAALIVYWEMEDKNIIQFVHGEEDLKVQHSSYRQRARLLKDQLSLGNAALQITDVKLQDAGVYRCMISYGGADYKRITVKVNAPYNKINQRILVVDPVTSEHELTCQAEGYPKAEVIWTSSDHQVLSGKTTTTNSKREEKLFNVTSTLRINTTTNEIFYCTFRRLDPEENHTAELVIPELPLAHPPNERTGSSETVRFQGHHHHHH

Cc1cc(CN[C@@](C)(CO)C(=O)O)c(OCc2cccnc2)cc1OCc1cccc(-c2ccc3c(c2)OCCO3)c1C [Example 1280, (S)-2-((4-((3-(2,3-dihydrobenzo[b][1,4]dioxin-6-yl)-2-methylbenzyl)oxy)-5-methyl-2-(pyridin-3-ylmethoxy)benzyl)amino)-3-hydroxy-2-methylpropanoic acid]
IC50: 0.6 to 10 nM

COc1ccc(F)c(COc2cc(OCc3cccc(-c4ccccc4)c3C)ccc2CNCCNC(C)=O)c1F [Example 1092, N-(2-((2-((2,6-difluoro-3-methoxybenzyl)oxy)-4-((2-methyl-[1,1′-biphenyl]-3-yl)methoxy)benzyl)amino)ethyl)acetamide]
IC50: 100 to 20000 nM

CC(=O)NCCNCc1ccc(OCc2cccc(-c3ccccc3)c2C)cc1OCc1cccc(C)c1F [Example 1070, N-(2-((2-((2-fluoro-3-methylbenzyl)oxy)-4-((2-methyl-[1,1′-biphenyl]-3-yl)methoxy)benzyl)amino)ethyl)acetamide]
IC50: 100 to 20000 nM

N#Cc1cccc(COc2cc(OCc3cccc(-c4ccc5c(c4)OCCO5)c3C#N)c(Br)cc2CNC[C@@H](O)CC(=O)O)c1 [Example 1314, (S)-4-((5-bromo-4-((2-cyano-3-(2,3-dihydrobenzo[b][1,4]dioxin-6-yl)benzyl)oxy)-2-((3-cyanobenzyl)oxy)benzyl)amino)-3-hydroxybutanoic acid]
IC50: 0.6 to 10 nM

Cc1c(COc2cc(OCc3cccc(C#N)c3)c(CNC(Cc3c[nH]c4ccc(O)cc34)C(=O)O)cc2Cl)cccc1-c1ccc2c(c1)OCCO2 (stereo not drawn) [Example 1167, 2-((5-chloro-2-((3-cyanobenzyl)oxy)-4-((3-(2,3-dihydrobenzo[b][1,4]dioxin-6-yl)-2-methylbenzyl)oxy)benzyl)amino)-3-(5-hydroxy-1H-indol-3-yl)propanoic acid]
IC50: 10 to 100 nM

CC(=O)NCCNCc1ccc(OCc2cccc(-c3ccccc3)c2C)cc1OCc1ccc(Cl)c(Cl)c1 [Example 1069, N-(2-((2-((3,4-dichlorobenzyl)oxy)-4-((2-methyl-[1,1′-biphenyl]-3-yl)methoxy)benzyl)amino)ethyl)acetamide]
IC50: 100 to 20000 nM

CC(=O)NCCNCc1ccc(OCc2cccc(-c3ccccc3)c2C)cc1OCc1ccccc1F [Example 1048, N-(2-((2-((2-fluorobenzyl)oxy)-4-((2-methyl-[1,1′-biphenyl]-3-yl)methoxy)benzyl)amino)ethyl)acetamide]
IC50: 100 to 20000 nM

Cc1c(COc2cc(OCc3cncc(C#N)c3)c(CN3CCCC[C@H]3C(=O)NS(=O)(=O)c3cn(C)cn3)cc2Cl)cccc1-c1ccc2c(c1)OCCO2 [Example 1261, (S)-1-(5-chloro-2-((5-cyanopyridin-3-yl)methoxy)-4-((3-(2,3-dihydrobenzo[b][1,4]dioxin-6-yl)-2-methylbenzyl)oxy)benzyl)-N-((1-methyl-1H-imidazol-4-yl)sulfonyl)piperidine-2-carboxamide]
IC50: 0.6 to 10 nM

COC(=O)c1ccc(OC)c(COc2cc(OCc3cccc(-c4ccc5c(c4)OCCO5)c3C)c(Cl)cc2CN2CCCC[C@H]2C(=O)O)c1 [Example 3026, (S)-1-(5-chloro-4-((3-(2,3-dihydrobenzo[b][1,4]dioxin-6-yl)-2-methylbenzyl)oxy)-2-((2-methoxy-5-(methoxycarbonyl)benzyl)oxy)benzyl)piperidine-2-carboxylic acid]
IC50: 100 to 20000 nM

Cc1c(COc2cc(OCc3cccc(C#N)c3)c(CN[C@H](C)C(=O)O)cc2Cl)cccc1-c1ccc2c(c1)OCCO2 [Example 1169, (R)-2-((5-chloro-2-((3-cyanobenzyl)oxy)-4-((3-(2,3-dihydrobenzo[b][1,4]dioxin-6-yl)-2-methylbenzyl)oxy)benzyl)amino)propanoic acid]
IC50: 0.6 to 10 nM

CC(=O)NCCNCc1ccc(OCc2cccc(-c3ccccc3)c2C)cc1OCc1ccccc1C [Example 1045, N-(2-((4-((2-methyl-[1,1′-biphenyl]-3-yl)methoxy)-2-((2-methylbenzyl)oxy)benzyl)amino)ethyl)acetamide]
IC50: 100 to 20000 nM

CC(=O)NCCNCc1ccc(OCc2cccc(-c3ccccc3)c2C)cc1OCc1ccc2c(cnn2C2CCCCO2)c1 (stereo not drawn) [Example 1099, N-(2-((4-((2-methyl-[1,1′-biphenyl]-3-yl)methoxy)-2-((1-(tetrahydro-2H-pyran-2-yl)-1H-indazol-5-yl)methoxy)benzyl)amino)ethyl)acetamide]
IC50: 100 to 20000 nM

Cc1c(COc2ccc(CN[C@H](CO)C(=O)O)c(OCCCCC#N)c2)cccc1-c1ccccc1 [Example 1143, (R)-2-((2-(4-cyanobutoxy)-4-((2-methyl-[1,1′-biphenyl]-3-yl)methoxy)benzyl)amino)-3-hydroxypropanoic acid]
IC50: 0.6 to 10 nM

Cc1c(COc2cc(OCc3cncc(C#N)c3)c(CN[C@@H](CCCCN(C)C)C(=O)O)cc2Cl)cccc1-c1ccc2c(c1)OCCO2 [Example 2006, (S)-2-((5-chloro-2-((5-cyanopyridin-3-yl)methoxy)-4-((3-(2,3-dihydrobenzo[b][1,4]dioxin-6-yl)-2-methylbenzyl)oxy)benzyl)amino)-6-(dimethylamino)hexanoic acid]
IC50: 0.6 to 10 nM

Cc1c(COc2cc(OCc3cncc(C#N)c3)c(CN[C@@](C)(CO)C(=O)O)cc2Cl)cccc1-c1ccc2c(c1)OCCO2 [Example 1252, (S)-2-(5-chloro-2-((5-cyanopyridin-3-yl)methoxy)-4-(3-(2,3-dihydrobenzo[b][1,4]dioxin-6-yl)-2-methylbenzyloxy)benzylamino)-3-hydroxy-2-methylpropanoic acid]
IC50: 0.6 to 10 nM

Cc1c(COc2cc(OCc3cccc(C#N)c3)c(CN[C@H](CC(=O)O)C(=O)O)cc2Cl)cccc1-c1ccc2c(c1)OCCO2 [Example 1175, (R)-2-((5-chloro-2-((3-cyanobenzyl)oxy)-4-((3-(2,3-dihydrobenzo[b][1,4]dioxin-6-yl)-2-methylbenzyl)oxy)benzyl)amino)succinic acid]
IC50: 10 to 100 nM

Cc1c(COc2ccc(CN[C@](C)(CO)C(=O)O)c(OCc3cccc(C(N)=O)c3)c2)cccc1-c1ccc2c(c1)OCCO2 [Example 1326, (R)-2-((2-((3-carbamoylbenzyl)oxy)-4-((3-(2,3-dihydrobenzo[b][1,4]dioxin-6-yl)-2-methylbenzyl)oxy)benzyl)amino)-3-hydroxy-2-methylpropanoic acid]
IC50: 0.6 to 10 nM

CC(=O)NCCNCc1ccc(OCc2cccc(-c3ccccc3)c2C)cc1OCc1cc(F)cc(F)c1 [Example 1062, N-(2-((2-((3,5-difluorobenzyl)oxy)-4-((2-methyl-[1,1′-biphenyl]-3-yl)methoxy)benzyl)amino)ethyl)acetamide]
IC50: 100 to 20000 nM

CC(=O)NCCNCc1ccc(OCc2cccc(-c3ccccc3)c2C)cc1OCCO [Example 1030, N-(2-((2-(2-hydroxyethoxy)-4-((2-methyl-[1,1′-biphenyl]-3-yl)methoxy)benzyl)amino)ethyl)acetamide]
IC50: 100 to 20000 nM

CC(=O)NCCNCc1ccc(OCc2cccc(-c3ccccc3)c2C)c(Cl)c1OCc1cccc(C#N)c1 [Example 1234, N-(2-(3-chloro-2-(3-cyanobenzyloxy)-4-((2-methylbiphenyl-3-yl)methoxy)benzylamino)ethyl)acetamide]
IC50: 100 to 20000 nM

COc1cc(COc2cc(OCc3cccc(-c4ccccc4)c3C)ccc2CNCCNC(C)=O)ccc1F [Example 1093, N-(2-((2-((4-fluoro-3-methoxybenzyl)oxy)-4-((2-methyl-[1,1′-biphenyl]-3-yl)methoxy)benzyl)amino)ethyl)acetamide]
IC50: 100 to 20000 nM
